Test results taken from patent US20210284639A1, “TYROSINE AMIDE DERIVATIVES AS RHO- KINASE INHIBITORS” (CHIESI FARMACEUTICI S.p.A., priority 2018, published 2021).
pKi: −log10 of the molar value.

What was measured:
ROCK 2 (Rho kinase 2) = ROCK 2 (Rho kinase 2) (Homo sapiens, UniProt O75116); experiment: In vitro inhibitory activity assay (ADP-Glo), Rho kinase 2; assay type: biochemical; settings: Ki by Cheng-Prusoff from IC50; 10 μM ATP, 25° C.
Procedure: (§1) In Vitro Inhibitory Activity Assay Description
(§2) The effectiveness of compounds of the present invention to inhibit Rho kinase activity can be determined in a 10 μl assay containing 40 mM Tris pH7.5, 20 mM MgCl2 0.1 mg/ml BSA, 50 μM DTT and 2.5 μM peptide substrate (Myelin Basic Protein) using an ADP-Glo kit (Promega). Compounds were dissolved in DMSO such that the final concentration of DMSO was 1% in the assay. All reactions/incubations are performed at 25° C. Compound (2 μl) and either Rho kinase 1 or 2 (4 μl) were mixed and incubated for 30 mins. Reactions were initiated by addition of ATP (4 μl) such that the final concentration of ATP in the assay was 10 μM. After a 1 hour incubation 10 μl of ADP-Glo Reagent was added and after a further 45 minute incubation 20 μl of Kinase Detection Buffer was added and the mixture incubated for a further 30 minutes. The luminescent signal was measured on a luminometer. […] Compounds were tested in dose-response format and the inhibition of kinase activity was calculated at each concentration of compound. To determine the IC50 (concentration of compound required to inhibit 50% of the enzyme activity) data were fit to a plot of % inhibition vs Log10 compound concentration using a sigmoidal fit with a variable slope and fixing the maximum to 100% and the minimum to 0%. To determine the Ki values the Cheng-Prusoff equation was utilized (Ki=IC50/(1+[S]/Km).

ROCK 1 (Rho kinase 1) = ROCK 1 (Rho kinase 1) (Homo sapiens, UniProt Q13464); experiment: In vitro inhibitory activity assay (ADP-Glo), Rho kinase 1; assay type: biochemical; settings: Ki by Cheng-Prusoff from IC50; 10 μM ATP, 25° C.
Procedure: as §1, §2

Chain of ROCK 1 (Rho kinase 1) (Q13464 whole entry): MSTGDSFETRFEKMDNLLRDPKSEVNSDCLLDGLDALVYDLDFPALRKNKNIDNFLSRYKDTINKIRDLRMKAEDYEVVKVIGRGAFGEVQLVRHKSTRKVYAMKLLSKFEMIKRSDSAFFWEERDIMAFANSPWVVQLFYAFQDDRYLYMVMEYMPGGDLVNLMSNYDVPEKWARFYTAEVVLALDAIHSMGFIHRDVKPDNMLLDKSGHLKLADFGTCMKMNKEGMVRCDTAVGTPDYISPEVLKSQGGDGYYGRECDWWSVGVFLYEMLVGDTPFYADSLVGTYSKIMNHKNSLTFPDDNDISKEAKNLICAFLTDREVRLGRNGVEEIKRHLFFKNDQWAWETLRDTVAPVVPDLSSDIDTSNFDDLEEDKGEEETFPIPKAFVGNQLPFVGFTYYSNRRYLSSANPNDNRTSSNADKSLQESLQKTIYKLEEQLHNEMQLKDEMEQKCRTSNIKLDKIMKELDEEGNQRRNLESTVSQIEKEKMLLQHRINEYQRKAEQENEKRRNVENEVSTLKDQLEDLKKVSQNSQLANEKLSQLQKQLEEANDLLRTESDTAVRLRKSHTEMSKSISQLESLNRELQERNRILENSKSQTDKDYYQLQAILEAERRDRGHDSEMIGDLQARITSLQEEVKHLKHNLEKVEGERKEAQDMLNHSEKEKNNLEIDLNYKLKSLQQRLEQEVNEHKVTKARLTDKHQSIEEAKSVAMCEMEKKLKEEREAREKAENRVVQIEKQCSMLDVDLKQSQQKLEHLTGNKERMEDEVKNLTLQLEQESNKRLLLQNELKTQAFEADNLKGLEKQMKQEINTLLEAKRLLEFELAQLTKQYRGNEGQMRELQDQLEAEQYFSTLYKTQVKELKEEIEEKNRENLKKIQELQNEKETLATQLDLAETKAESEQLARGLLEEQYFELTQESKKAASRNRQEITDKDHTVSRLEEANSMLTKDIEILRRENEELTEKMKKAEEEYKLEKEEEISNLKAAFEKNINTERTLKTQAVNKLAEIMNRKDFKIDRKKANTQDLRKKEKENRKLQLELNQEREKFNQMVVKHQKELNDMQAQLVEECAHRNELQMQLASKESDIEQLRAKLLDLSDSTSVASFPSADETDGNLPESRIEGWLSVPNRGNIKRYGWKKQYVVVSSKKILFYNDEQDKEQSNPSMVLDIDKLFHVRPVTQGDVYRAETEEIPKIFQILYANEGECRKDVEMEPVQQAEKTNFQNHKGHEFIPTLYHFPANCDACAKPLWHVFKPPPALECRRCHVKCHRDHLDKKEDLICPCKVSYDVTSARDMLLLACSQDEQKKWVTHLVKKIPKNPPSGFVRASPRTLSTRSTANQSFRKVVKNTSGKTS
Chain of ROCK 2 (Rho kinase 2) (O75116 whole entry): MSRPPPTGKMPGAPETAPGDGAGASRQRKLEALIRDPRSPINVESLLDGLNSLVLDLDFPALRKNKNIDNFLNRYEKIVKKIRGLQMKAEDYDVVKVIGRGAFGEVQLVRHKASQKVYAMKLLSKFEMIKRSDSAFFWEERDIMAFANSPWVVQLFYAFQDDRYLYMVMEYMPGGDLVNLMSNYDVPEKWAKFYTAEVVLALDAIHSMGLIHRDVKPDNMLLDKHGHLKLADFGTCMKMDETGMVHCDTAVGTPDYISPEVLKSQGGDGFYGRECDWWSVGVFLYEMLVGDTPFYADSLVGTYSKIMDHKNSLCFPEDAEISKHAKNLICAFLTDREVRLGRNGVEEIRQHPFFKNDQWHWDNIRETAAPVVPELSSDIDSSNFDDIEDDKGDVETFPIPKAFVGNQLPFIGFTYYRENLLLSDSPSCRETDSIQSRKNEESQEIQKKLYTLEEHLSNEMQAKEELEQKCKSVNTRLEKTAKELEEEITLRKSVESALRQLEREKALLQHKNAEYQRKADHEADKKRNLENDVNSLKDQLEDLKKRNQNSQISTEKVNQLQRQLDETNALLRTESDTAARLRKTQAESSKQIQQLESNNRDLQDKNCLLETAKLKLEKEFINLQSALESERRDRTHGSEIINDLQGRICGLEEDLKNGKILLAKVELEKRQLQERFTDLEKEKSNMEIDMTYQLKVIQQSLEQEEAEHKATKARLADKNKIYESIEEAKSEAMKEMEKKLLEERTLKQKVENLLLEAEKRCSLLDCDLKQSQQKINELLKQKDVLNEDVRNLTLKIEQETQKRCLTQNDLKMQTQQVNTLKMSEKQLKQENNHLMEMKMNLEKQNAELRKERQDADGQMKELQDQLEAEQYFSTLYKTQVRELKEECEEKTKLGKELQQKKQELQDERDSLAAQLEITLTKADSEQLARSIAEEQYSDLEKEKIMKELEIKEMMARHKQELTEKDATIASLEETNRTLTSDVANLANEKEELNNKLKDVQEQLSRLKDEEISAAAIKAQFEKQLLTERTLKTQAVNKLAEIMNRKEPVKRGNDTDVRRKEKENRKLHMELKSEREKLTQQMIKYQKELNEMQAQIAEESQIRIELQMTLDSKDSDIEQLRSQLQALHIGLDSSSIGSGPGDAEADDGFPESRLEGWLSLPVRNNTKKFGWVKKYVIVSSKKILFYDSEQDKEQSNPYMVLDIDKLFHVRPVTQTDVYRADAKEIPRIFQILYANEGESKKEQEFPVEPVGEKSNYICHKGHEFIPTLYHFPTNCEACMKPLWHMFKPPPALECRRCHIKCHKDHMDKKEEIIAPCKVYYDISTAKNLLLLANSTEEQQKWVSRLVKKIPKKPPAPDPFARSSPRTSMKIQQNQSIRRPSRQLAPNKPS

pKi (ROCK 2 (Rho kinase 2))	pKi (ROCK 1 (Rho kinase 1))	Structure (SMILES)
> 8.52	> 8.52	Cc1c[nH]c2nccc(Oc3ccc(C[C@H](N)C(=O)NC4(C(N)=O)CCC4)cc3F)c12 [Example 27, (S)-1-(2-Amino-3-(3-fluoro-4-((3-methyl-1H-pyrrolo[2,3-b]pyridin-4-yl)oxy)phenyl)propanamido)cyclobutane-1-carboxamide]
> 8.52	> 8.52	CNC(=O)C1(NC(=O)[C@@H](N)Cc2ccc(Oc3ccnc4[nH]cc(C)c34)c(F)c2)CCCC1 [Example 28, (S)-1-(2-amino-3-(3-fluoro-4-((3-methyl-1H-pyrrolo[2,3-b]pyridin-4-yl)oxy)phenyl)propanamido)-N-methylcyclopentane-1-carboxamide]
> 8.52	> 8.52	CNC(=O)C1(NC(=O)[C@@H](N)Cc2ccc(Oc3ccnc4[nH]cc(C)c34)c(F)c2)CCCCC1 [Example 29, (S)-1-(2-amino-3-(3-fluoro-4-((3-methyl-1H-pyrrolo[2,3-b]pyridin-4-yl)oxy)phenyl)propanamido)-N-methylcyclohexane-1-carboxamide]
> 8.52	> 8.52	Cc1c[nH]c2nccc(Oc3ccc(C[C@H](N)C(=O)NC4(CO)CCC4)cc3F)c12 [Example 30, (S)-2-amino-3-(3-fluoro-4-((3-methyl-1H-pyrrolo[2,3-b]pyridin-4-yl)oxy)phenyl)-N-(1-(hydroxymethyl)cyclobutyl)propanamide]
> 8.52	> 8.52	Cc1cccc(S(=O)(=O)C2CCN(C(=O)[C@@H](N)Cc3ccc(Oc4ccnc5[nH]cc(C)c45)c(F)c3)CC2)c1 [Example 31, (S)-2-Amino-3-(3-fluoro-4-((3-methyl-1H-pyrrolo[2,3-b]pyridin-4-yl)oxy)phenyl)-1-(4-(m-tolylsulfonyl)piperidin-1-yl)propan-1-one]
> 8.52	7.52 to 8.52	Cc1c[nH]c2ncnc(Oc3ccc(C[C@H](N)C(=O)NC4(C(N)=O)CCCCC4)cc3F)c12 [Example 32, (S)-1-(2-amino-3-(3-fluoro-4-((5-methyl-7H-pyrrolo[2,3-d]pyrimidin-4-yl)oxy)phenyl)propanamido)cyclohexanecarboxamide]
> 8.52	> 8.52	CNC(=O)C1(NC(=O)[C@@H](N)Cc2ccc(Oc3ncnc4[nH]cc(C)c34)c(F)c2)CCCCC1 [Example 33, (S)-1-(2-amino-3-(3-fluoro-4-((5-methyl-7H-pyrrolo[2,3-d]pyrimidin-4-yl)oxy)phenyl)propanamido)-N-methylcyclohexanecarboxamide]
> 8.52	> 8.52	Cc1c[nH]c2ncnc(Oc3ccc(C[C@H](N)C(=O)NC4(CCO)CCCCC4)cc3F)c12 [Example 34, (S)-2-amino-3-(3-fluoro-4-((5-methyl-7H-pyrrolo[2,3-d]pyrimidin-4-yl)oxy)phenyl)-N-(1-(2-hydroxyethyl)cyclohexyl)propanamide]
> 8.52	> 8.52	Cc1c[nH]c2ncnc(Oc3ccc(C[C@H](N)C(=O)NC4(CO)CCCCC4)cc3F)c12 [Example 35, (S)-2-Amino-3-(3-fluoro-4-((5-methyl-7H-pyrrolo[2,3-d]pyrimidin-4-yl)oxy)phenyl)-N-(1-(hydroxymethyl)cyclohexyl)propanamide]
> 8.52	7.52 to 8.52	Cc1c[nH]c2ncnc(Oc3ccc(C[C@H](N)C(=O)NC4(CO)CCOCC4)cc3F)c12 [Example 36, (S)-2-Amino-3-(3-fluoro-4-((5-methyl-7H-pyrrolo[2,3-d]pyrimidin-4-yl)oxy)phenyl)-N-(4-(hydroxymethyl)tetrahydro-2H-pyran-4-yl)propanamide]
> 8.52	> 8.52	Cc1c[nH]c2ncnc(Oc3ccc(C[C@H](N)C(=O)N4CCC(S(=O)(=O)c5ccc(F)cc5)CC4)cc3F)c12 [Example 37, (S)-2-Amino-3-(3-fluoro-4-((5-methyl-7H-pyrrolo[2,3-d]pyrimidin-4-yl)oxy)phenyl)-1-(4-((4-fluorophenyl)sulfonyl)piperidin-1-yl)propan-1-one]
> 8.52	> 8.52	Cc1c[nH]c2ncnc(Oc3ccc(C[C@H](N)C(=O)N4CC[C@H](S(=O)(=O)c5ccccc5)C4)cc3F)c12 [Example 38, (S)-2-Amino-3-(3-fluoro-4-((5-methyl-7H-pyrrolo[2,3-d]pyrimidin-4-yl)oxy)phenyl)-1-((S)-3-(phenylsulfonyl)pyrrolidin-1-yl)propan-1-one]
> 8.52	> 8.52	Cc1c[nH]c2ncnc(Oc3ccc(C[C@H](N)C(=O)NC4CCN(C5CC5)CC4)cc3F)c12 [Example 39, (S)-2-Amino-N-(1-cyclopropylpiperidin-4-yl)-3-(3-fluoro-4-((5-methyl-7H-pyrrolo[2,3-d]pyrimidin-4-yl)oxy)phenyl)propanamide]
> 8.52	> 8.52	CN1CCC(NC(=O)[C@@H](N)Cc2ccc(Oc3ccnc4[nH]cc(C5CC5)c34)c(F)c2)CC1 [Example 40, (S)-2-Amino-3-(4-((3-cyclopropyl-1H-pyrrolo[2,3-b]pyridin-4-yl)oxy)-3-fluorophenyl)-N-(1-methylpiperidin-4-yl)propanamide]
> 8.52	> 8.52	Cc1c[nH]c2ncnc(Oc3c(F)cc(C[C@H](N)C(=O)N4CCC(S(=O)(=O)c5ccccc5)CC4)cc3F)c12 [Example 41, (S)-2-Amino-3-(3,5-difluoro-4-((5-methyl-7H-pyrrolo[2,3-d]pyrimidin-4-yl)oxy)phenyl)-1-(4-(phenylsulfonyl)piperidin-1-yl)propan-1-one]
> 8.52	> 8.52	Cc1c[nH]c2nccc(Oc3c(F)cc(C[C@H](N)C(=O)N4CCC(S(=O)(=O)c5ccccc5)CC4)cc3F)c12 [Example 42, (S)-2-amino-3-(3,5-difluoro-4-((3-methyl-1H-pyrrolo[2,3-b]pyridin-4-yl)oxy)phenyl)-1-(4-(phenylsulfonyl)piperidin-1-yl)propan-1-one]
> 8.52	> 8.52	COCCNC(=O)C1(NC(=O)[C@@H](N)Cc2ccc(Oc3ccnc4[nH]cc(C)c34)c(F)c2)CCCCC1 [Example 43, (S)-1-(2-amino-3-(3-fluoro-4-((3-methyl-1H-pyrrolo[2,3-b]pyridin-4-yl)oxy)phenyl)propanamido)-N-(2-methoxyethyl)cyclohexanecarboxamide]
> 8.52	> 8.52	Cc1c[nH]c2nccc(Oc3ccc(C[C@H](N)C(=O)NC4(C(=O)NCCO)CCCCC4)cc3F)c12 [Example 44, (S)-1-(2-amino-3-(3-fluoro-4-((3-methyl-1H-pyrrolo[2,3-b]pyridin-4-yl)oxy)phenyl)propanamido)-N-(2-hydroxyethyl)cyclohexanecarboxamide]
> 8.52	7.52 to 8.52	Cc1c[nH]c2nccc(Oc3ccc(C[C@H](N)C(=O)N(C)C)cc3F)c12 [Example 45, (S)-2-amino-3-(3-fluoro-4-((3-methyl-1H-pyrrolo[2,3-b]pyridin-4-yl)oxy)phenyl)-N,N-dimethylpropanamide]
> 8.52	> 8.52	CNC(=O)[C@@H](N)Cc1ccc(Oc2ccnc3[nH]cc(C)c23)c(F)c1 [Example 46, (S)-2-amino-3-(3-fluoro-4-((3-methyl-1H-pyrrolo[2,3-b]pyridin-4-yl)oxy)phenyl)-N-methylpropanamide]
> 8.52	> 8.52	Cc1c[nH]c2nccc(Oc3ccc(C[C@H](N)C(N)=O)cc3F)c12 [Example 47, (S)-2-amino-3-(3-fluoro-4-((3-methyl-1H-pyrrolo[2,3-b]pyridin-4-yl)oxy)phenyl)propanamide]
